# Experimental data as given in patent US8604044B2, “Quinazoline based EGFR inhibitors containing a zinc binding moiety” (Curis, Inc., priority 2006, dated 2013).
# Like-named read-outs stand apart in the source and are kept apart here.
# Assays:
# [1] = male, CD-1, mouse, in vivo, ip, 7 days
# [2] = tested on: HCT-116 (colon) and SKBr3 (breast) cancer cells; assay: Induction of apoptosis, Caspase 3&7 activity (FIG. 4); type: cell-based; conditions: 24 hours
# [3] = tested on: EGFR in MDA-MB-468 breast cancer cell line; assay: EGFR phosphorylation in MDA-MB-468 breast cancer cell line (FIG. 2); type: cell-based; conditions: MDA-MB-468, FIG. 2
# [4] = both, Sprague Dawley, rat, in vivo, iv, 8 days
# [5] = Captisol formulation of compound 12: solubility, pH, dilution, stability
# [6] = Pharmacokinetic study of compound 12 formulation in rats; type: in vivo; conditions: 20 and 60 mg/kg iv, hydrochloride salt in 30% CAPTISOL, over thirty hours, FIG. 14
# [7] = Pharmacokinetic study of compound 12 formulation in mice; type: in vivo; conditions: hydrochloride salt in 30% CAPTISOL
# Method: Drug Preparation and Administration. […] Compound was administered via an intravenous (iv) infusion.
# Plasma samples were prepared by protein precipitation. An internal standard was added into plasma samples. […] The supernatant was then injected onto LC/MS/MS.
# Tissues were homogenized in 0.8 ml water. An internal standard was added into the tissue homogenates.
# [8] = tested on: HDAC in MDA-MB-468 breast cancer cell line; assay: Ac-H4 / Ac-H3 accumulation in MDA-MB-468 breast cancer cell line (FIG. 2); type: cell-based; conditions: MDA-MB-468, Ac-H4 and Ac-H3 accumulation
# [9] = Pharmacokinetic study of compound 12 formulation in mice; type: in vivo; conditions: IP Dose 20 mg/kg, hydrochloride salt in 30% CAPTISOL
# Caki-1 = assay: Cell proliferation assay (Table D); type: cell-based; conditions: Homo sapiens, Renal carcinoma, read-out: IC50 grading Caki-1
# [10] = tested on: HPAC pancreatic cancer cells; assay: HPAC pancreatic cancer xenograft; type: in vivo, mice; conditions: 120 mg/kg in 30% CAPTISOL (iv/ip) daily vs 50 mg/kg erlotinib (po) or vehicle, FIG. 12A
# Method: (§1) 1-10×10^6 human cancer cells were implanted subcutaneously to the athymic (nu/nu) mice. When the tumors reached about 100 mm^3 in volume, the mice were treated with the compound by tail vein infusion. Routinely 5 groups (8-12 mice per group) are needed for a typical efficacy study, including one negative control, one positive control, and three testing groups for 3 dose levels of the same compound. Usually a 7-7-5 (on-off-on) regimen was used for one typical study. The tumor size was measured with an electronic caliper and body weight measured with a scale twice weekly. The tumors were removed from euthanized mice at the end of the study. One half of each tumor was frozen in dry ice and stored at −80° C. for PK or Western blot analysis. The other half was fixed with formalin. The fixed tissues were processed, embedded in paraffin and sectioned for immunohistochemistry staining.
# [11] = tested on: various cancer cell lines; assay: Cell proliferation assay, various cancer cell lines (general statements); type: cell-based; conditions: Table D
# Method: Cancer cell lines were plated at 5,000 to 10,000 per well in 96-well flatted bottomed plates with various concentration of compounds. The cells were incubated with compounds for 72 hours in the presence of 0.5% of fetal bovine serum. Growth inhibition was accessed by adenosine triphosphate (ATP) content assay using Perkin Elmer ATPlite kit. ATPlite is an ATP monitoring system based on firefly luciferase. Briefly, 25 μl of mammalian cell lysis solution was added to 50 μl of phenol red-free culture medium per well to lyse the cells and stabilize the ATP. 25 μl of substrate solution was then added to the well and subsequently the luminescence was measured.
# human EGFR = target: T1, human EGFR (Homo sapiens, UniProt P00533); assay: HTScan EGF Receptor Kinase Assay; type: biochemical
# T1 construct: human EGFR (His672-Ala1210); purchased Cell Signaling Technologies; host or cells: baculovirus expression system
# T1 sequence (P00533 672-1210): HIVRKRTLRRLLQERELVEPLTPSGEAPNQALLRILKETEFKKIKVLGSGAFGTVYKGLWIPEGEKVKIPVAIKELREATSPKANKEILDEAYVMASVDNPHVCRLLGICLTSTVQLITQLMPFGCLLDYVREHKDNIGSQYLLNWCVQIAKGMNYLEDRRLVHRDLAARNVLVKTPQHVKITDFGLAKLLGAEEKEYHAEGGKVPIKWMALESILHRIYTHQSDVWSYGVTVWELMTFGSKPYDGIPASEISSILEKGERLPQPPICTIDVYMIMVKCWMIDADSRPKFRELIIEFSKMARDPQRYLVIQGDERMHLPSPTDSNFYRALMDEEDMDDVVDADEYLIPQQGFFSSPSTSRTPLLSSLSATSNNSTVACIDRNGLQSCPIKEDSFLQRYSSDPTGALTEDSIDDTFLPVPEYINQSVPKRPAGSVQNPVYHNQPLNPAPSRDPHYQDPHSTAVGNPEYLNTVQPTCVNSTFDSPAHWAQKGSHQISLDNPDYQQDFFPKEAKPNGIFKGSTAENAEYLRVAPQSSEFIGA
# Method: The ability of compounds to inhibit receptor kinase (EGFR) activity was assayed using HTScan™ EGF Receptor Kinase Assay Kits (Cell Signaling Technologies, Danvers, Mass.). […] The protein was purified by one-step affinity chromatography using glutathione-agarose.
# Immediately transfer enzyme from −80° C. to ice. Allowed enzyme to thaw on ice. […] Returned immediately to ice. […] Incubated reaction plate at room temperature for 30 minutes. […] Added 100 μl/well primary antibody. Incubated at room temperature for 60 minutes. […] Added 100 μl/well diluted antibody. Incubated at room temperature for 30 minutes. […] Incubated at room temperature for 5 minutes.
# [12] = male, CD-1, mouse, in vivo, iv, 9 days
# HDAC = HDAC fluorimetric assay (HDAC enzymatic activity, HeLa nuclear extract); type: biochemical; conditions: HeLa nuclear extract; read-out: HDAC IC50 grading
# Method: HDAC inhibitors were screened using an HDAC fluorimetric assay kit (AK-500, Biomol, Plymouth Meeting, Pa.).
# Each assay was setup as follows: Defrosted all kit components and kept on ice until use. […] Prepared dilutions of Trichostatin A (TSA, positive control) and tested compounds in assay buffer (5× of final concentration). Diluted Fluor de Lys™ Substrate in assay buffer to 100 uM (50 fold=2× final). Diluted Fluor de Lys™ developer concentrate 20-fold (e.g. 50 μl plus 950 μl Assay Buffer) in cold assay buffer. Second, diluted the 0.2 mM Trichostatin A 100-fold in the 1× Developer (e.g. 10 μl in 1 ml; final Trichostatin A concentration in the 1× Developer=2 μM; final concentration after addition to HDAC/Substrate reaction=1 μM). Added Assay buffer, diluted trichostatin A or test inhibitor to appropriate wells of the microtiter plate. Added diluted HeLa extract or other HDAC sample to all wells except for negative controls.
# HER2 = target: T2, HER2 (Homo sapiens, UniProt P04626); assay: Radioisotope assay for HER2; type: biochemical; conditions: read-out: HER2/ErB2 IC50 grading
# T2 construct: human HER2 amino acids 679-1255; host or cells: baculovirus in Sf9 insect cells
# T2 sequence (P04626 679-1255): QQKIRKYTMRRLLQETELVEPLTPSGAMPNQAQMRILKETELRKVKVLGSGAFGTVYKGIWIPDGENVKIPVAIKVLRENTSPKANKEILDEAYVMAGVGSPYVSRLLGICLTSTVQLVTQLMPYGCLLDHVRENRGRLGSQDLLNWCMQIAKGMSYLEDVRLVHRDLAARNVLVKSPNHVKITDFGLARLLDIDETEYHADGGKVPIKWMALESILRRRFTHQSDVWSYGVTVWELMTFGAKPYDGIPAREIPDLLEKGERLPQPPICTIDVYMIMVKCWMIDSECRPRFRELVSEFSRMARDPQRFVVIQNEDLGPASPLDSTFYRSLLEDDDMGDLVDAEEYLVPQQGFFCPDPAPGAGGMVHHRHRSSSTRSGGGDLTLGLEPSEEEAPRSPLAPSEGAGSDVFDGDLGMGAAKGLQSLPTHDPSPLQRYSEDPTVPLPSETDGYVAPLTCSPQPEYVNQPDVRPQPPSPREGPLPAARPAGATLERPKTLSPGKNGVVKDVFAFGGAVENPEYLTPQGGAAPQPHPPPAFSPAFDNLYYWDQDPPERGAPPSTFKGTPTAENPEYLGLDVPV
# Method: Protocol for Radioisotope Assay for HER2
# 10 nM HER2 and 0.1 mg/ml polyEY were placed in the reaction buffer and 2 mM MnCl2, 1 μM ATP and 1% DMSO final were added. The reaction mixture was incubated for 2 hours at room temperature.
# MW=91.6 kDa. […] Enzyme is in 25 mM Tris-HCl, pH 8.0, 100 mM NaCl, 0.05% Tween-20, 50% glycerol, 10 mM reduced glutathione, and 3 mM DTT.
# A549 NSCLC Xenograft = assay: A549 NSCLC xenograft model; type: in vivo, mice; conditions: FIG. 11B
# Method: as §1
structure (smiles),measurement,setting,value
"C#Cc1cccc(Nc2ncnc3cc(OC)c(OCCCCCCC(=O)NO)cc23)c1 [Compound 12, 7-(4-(3-ethynylphenylamino)-7-methoxyquinazolin-6-yloxy)-N-hydroxyheptanamide]",dose not resulting in a significant change in body weight,[1],up to 100 mg/kg
same,"cell apoptosis measured by increased Caspase 3&7 activity, times more",[2],4-11 times
same,inhibition of EGFR phosphorylation compared with Erlotinib,[3],improvement
same,dose not resulting in a significant change in body weight,[4],up to 200 mg/kg
same,stability of solution,[5]; 25 mg/ml in 30% Captisol with tartaric acid,stable at room temperature
same,chemically stable and in solution without precipitation after dilution,"[5]; formulations from A (i), diluted with D5W 10-, 20-, and 50-fold",> 48 h
same,remained in solution without precipitation after dilution,"[5]; formulations from A (ii) citric acid, A (iii) hydrochloric acid, A (iiii) sodium salt, diluted with D5W 10-fold",> 12 h
same,chemical stability of lyophilisate,"[5]; lyophilisate from A (i) (tartaric acid, 25 mg/ml), −20° C., room temperature, and 40° C.",at least 2 weeks
same,storage of lyophilisate without decomposition,"[5]; lyophilisate from A (i), 4° C.",greater than 2 weeks
same,stability of lyophilisate,"[5]; lyophilisate from A (iii) (hydrochloric acid), −20° C.",at least two weeks
same,plasma concentration versus dose,[6],proportional to the dose
same,dose proportionality of concentration,"[7]; 20 and 60 mg/kg, iv and ip",dose proportional when administered intravenously but not intraperitoneally
same,T ½,"[7]; IP Dose 20 mg/kg, Lung",2.2 h
same,AUC,"[7]; IV Dose 20 mg/kg, Colon",5529 ng·h/mL
same,Cmax,"[7]; IV Dose 20 mg/kg, Colon",8.5 µM
same,T ½,"[7]; IV Dose 20 mg/kg, Colon",1.7 h
same,AUC,"[7]; IV Dose 20 mg/kg, Lung",1571 ng·h/mL
same,Cmax,"[7]; IV Dose 20 mg/kg, Lung",15.2 µM
same,T ½,"[7]; IV Dose 20 mg/kg, Lung",3.9 h
same,AUC,"[7]; IV Dose 20 mg/kg, Plasma",715 ng·h/mL
same,Cmax,"[7]; IV Dose 20 mg/kg, Plasma",27.7 µM
same,T ½,"[7]; IV Dose 20 mg/kg, Plasma",0.2 h
same,half-life in tissue compared with plasma,[7],greater than that in plasma
same,histone H3/H4 acetylation accumulation compared with SAHA,[8],improvement
same,AUC,[9]; Lung,4433 ng·h/mL
same,Cmax,[9]; Lung,7.8 µM
same,AUC,[9]; Plasma,3751 ng·h/mL
same,Cmax,[9]; Plasma,8.5 µM
same,T ½,[9]; Plasma,0.26 h
same,IC50,Caki-1,≤ 50 nM
same,attenuation of tumor growth,[10],greater attenuation of tumor growth than either erlotinib (po) or vehicle
same,activity in various cancer cell lines compared with Erlotinib and SAHA,[11],more active than Erlotinib and SAHA
same,activity in EFGR enzyme assay compared with erlotinib,human EGFR; FIG. 1,more active
same,dose not resulting in a significant change in body weight,[12],up to 200 mg/kg
"O=C(CCCCCNCc1ccc(-c2ccc3ncnc(Nc4ccc(OCc5cccc(F)c5)c(Cl)c4)c3c2)o1)NO [Compound 177, 6-((5-(4-(3-chloro-4-(3-fluorobenzyloxy)phenylamino)quinazolin-6-yl)furan-2-yl)methylamino)-N-hydroxyhexanamide]",IC50,HDAC,100 to 1000 nM
same,IC50,HER2,< 100 nM
same,melting point,,121 °C
same,IC50,human EGFR; read-out: EGFR IC50 grading,< 100 nM
C#Cc1cccc(Nc2ncnc3cc(OCCOC)c(OCCOC)cc23)c1 [Erlotinib],effect on tumor size as compared to control,A549 NSCLC Xenograft,did not significantly affect tumor size
"COc1cc2ncnc(NCc3ccc(F)c(Cl)c3)c2cc1OCCCCCCC(=O)NO [Compound 88, 7-(4-(3-chloro-4-fluorobenzylamino)-7-methoxyquinazolin-6-yloxy)-N-hydroxyheptanamide]",IC50,HDAC,< 100 nM
same,IC50,HER2,1000 to 10000 nM
same,melting point,,143.1 °C (dec.)
